Measurements: patent US20260234188A1, “CHEMOKINE-BINDING PEPTIDES” (Oxford University Innovation Limited, priority 2022, published 2026)
Ends that are not written are not given here. Peptide text beside a SMILES is read from it.

Experiments:
[1] = biological target: T1, CXCL11 (Homo sapiens, UniProt O14625); experiment: CXCL11-induced activated T-cell migration, transwell assay; format: cell-based; details: HD2 mutant peptides 10 μM, chemokine at EC80
T1 construct: purchased Peprotech
T1 sequence (O14625 22-94): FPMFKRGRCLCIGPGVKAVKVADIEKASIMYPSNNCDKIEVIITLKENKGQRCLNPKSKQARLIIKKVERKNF
Experimental: FIG. 2. […] BK1.2 is described in (Darlot, 2020). […] Chemokines used are indicated by the name, followed in parenthesis by the supplier code (P in supplier code indicates Peprotech). […] All experiments were performed at EC80 doses of indicated chemokine. Data are shown as box-whisker plots of three technical and three biological replicates. Statistically significant differences (compared to control, indicated by #), using Dunnett's test with correction for multiple comparisons, are indicated by asterisks: ****=P≤0.0001, ***=P≤0.001, **=P≤0.01, *=P≤0.05.
Briefly, cell migration assays use THP1 cells (human monocyte) and primary human buffy coat white cells (consisting of neutrophil granulocytes, monocytes, and lymphocytes), and activated T-cells. THP1 cells and primary monocytes respond to CCL2, CCL3, CCL5, CCL8 and CXCL4, granulocytes to CXCL1 and CXCL8, activated T-cells to CXCL9/10/11. Assays are performed in 96-well Boyden chambers, and migrated cells counted and characterized using and ATTUNE Flow Cytometer as described. Triplicate assays are performed at the EC80 dose of each chemokine at 10 μM peptide concentration.
(§1) The J:CXCR1 cell line was generated by transfecting Jurkat cells by electroporation with PvuI-linearized plasmid D1398 and selecting with blasticidin (Sigma-Aldrich, Cat #203350, […]). […] J:CXCR1 cells were cultured in RPMI-1640 media (Gibco), supplemented with 10% FBS and 5 mM L-Glutamine with blasticidin. For J:CXCR1 migration assays, 300,000 cells/well were added to the top chamber of a 3 μm Transwell insert (Corning) in 50 μL of migration media (RPMI-1640, 0.5% FBS, 4 mM L-Glutamine, 0.05% DMSO). The bottom chamber contained 150 μL of chemokine, with or without peptide. Cells were migrated at 37° C. in 5% CO2 for 4 hours. The plate was incubated on a shaking platform for 10 minutes, 800 rpm, at 37° C., and 150 μL from the bottom of the plate transferred into a U-bottom plate containing 50 μL of migration media. Cell counts were determined by Attune NxT Flow Cytometer Plate Reader (ThermoFisher), based on cell size parameters FSC-H/SSC-H. Experiments were performed in 3 technical and 3 biological replicates. THP-1 migration assays were carried out using methods known in the art. Activated T-cell assays were carried out using methods known in the art, with the following modifications in the isolation process. Peripheral blood cells were obtained from leucocyte cones (NHS Blood Transfusion Services), following which, T-cells were isolated using two rounds of human CD8+ T-cell isolation kit (480011, BioLegend). At day 10 after activation, T-cells were frozen at 20 E6 cells/ml in TexMACS medium supplemented with 10% DMSO (D2650, Sigma) in liquid nitrogen. Prior to use, activated T-cells were recovered for 24 hours in TexMACs medium at 0.3 E6 cells/ml and incubated at 37° C. in 5% CO2. Chemokine sources are described in Supplementary information Table 3. Statistical significances between control experimental groups was evaluated using Dunnett's test. IC50 experiments were performed at the EC80 dose of chemokine. EC80 was calculated by fitting a chemokine dose-response curve with 3 parameters (fixing the top to 100%). IC50 was calculated by fitting an inhibitor response curve with 4 parameters.

[2] = biological target: T2, CXCL6 (Homo sapiens, UniProt P80162); experiment: cell-based; details: HD2 mutant peptides 10 μM, chemokine at EC80
T2 sequence (P80162 38-114): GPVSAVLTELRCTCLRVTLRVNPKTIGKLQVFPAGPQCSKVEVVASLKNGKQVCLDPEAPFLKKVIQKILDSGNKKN
Experimental: FIG. 11. […] Technical replicates are shown as individual data points. […] The response curve (solid blue line) and its 95% confidence interval (grey ribbon) were calculated using a 4-parameter log-logistic plot.
as §1
(§2) Migration assays using THP1, activated T-cell (ATC) and J:CXCR1 (Jurkat cells stably transfected with CXCR1 receptor) were performed as described previously. IC50 experiments were performed at the EC80 dose of chemokine. EC80 was calculated by fitting a chemokine dose-response curve with 3 parameters (fixing the top to 100%). IC50 was calculated by fitting an inhibitor response curve with 4 parameters. R-packages used were ggupset_0.3.0, DescTools_0.99.44, and drc_3.0-1.

[3] = biological target: CXCL12 (Homo sapiens, UniProt P48061); format: cell-based; design: activity in inhibiting migration of activated T cells in comparison to HD2_Y5W: dose or concentration left out as unconfirmed; details: chemokine at EC80; for chemotaxis compared with the parental HD2 peptide: HD2 mutant peptides 10 μM
Experimental: FIG. 22. Effect of selected combinatorial HD2 mutations on chemotaxis. FIG. 22A. Box-whisker plot showing the effect of the exemplar single and combinatorically mutant (CM) HD2 peptides on activated-T cell (ATC) migration induced by CXCL12. All experiments were performed as at least three technical and three biological replicates, and individual data points are indicated. […] HD2SCR is a scrambled version of HD2. […] Statistically significant differences (compared to control, HD2_Y5W, coloured blue), using Dunnett's test with correction for multiple comparisons, are indicated by asterisks: ****=P≤0.0001, ***=P≤0.001, **=P≤0.01, *=P≤0.05. All comparisons were made to HD2_Y5W, as it is present in CM539, CM452, and CM304. […] Technical replicates are shown as individual data points. […] The response curve (solid blue line) and its 95% confidence interval (grey ribbon) were calculated using a 4-parameter log-logistic plot. The agonist and estimated IC50 (dotted green line) are indicated.
as §1, §2

[4] = biological target: T3, CCL21 (Homo sapiens, UniProt O00585); experiment: CCL21-induced cell migration assay; format: cell-based; details: HD2 mutant peptides 10 μM, chemokine at EC80
T3 sequence (O00585 24-134): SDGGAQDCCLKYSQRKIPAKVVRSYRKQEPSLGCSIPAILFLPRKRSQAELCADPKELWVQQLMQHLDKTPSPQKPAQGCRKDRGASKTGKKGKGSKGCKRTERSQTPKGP
Experimental: (§3) FIGS. 24 and 25. Effect of exemplar mutant HD2 peptides on chemotaxis. Box-whisker plots showing the effect of the exemplar mutant HD2 peptides on cell migration induced by indicated human chemokines. All experiments were performed as at least three technical and between one to three biological replicates, and individual data points are indicated. […] Chemokine and cell type names are indicated. HD2SCR is a scrambled version of HD2 used as negative control. All peptides were at 10 μM final concentration and chemokines at EC80 doses. Statistically significant differences (compared to control, coloured blue), using Dunnett's test with correction for multiple comparisons, are indicated by asterisks: ****=P≤0.0001, ***=P≤0.001, **=P≤0.01, *=P≤0.05.
as §1, §2

[5] = biological target: T4, CXCL5 (Homo sapiens, UniProt P42830); experiment: CXCL5-induced cell migration assay; format: cell-based; details: HD2 mutant peptides 10 μM, chemokine at EC80
T4 sequence (P42830 37-114): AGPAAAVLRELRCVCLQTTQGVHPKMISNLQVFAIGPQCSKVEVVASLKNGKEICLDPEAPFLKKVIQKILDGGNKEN
Experimental: as §3
The J:CXCR1 cell line was generated by transfecting Jurkat cells by electroporation with PvuI-linearized plasmid D1398 and selecting with blasticidin (Sigma-Aldrich, Cat #203350, […]). […] J:CXCR1 cells were cultured in RPMI-1640 media (Gibco), supplemented with 10% FBS and 5 mM L-Glutamine with blasticidin. For J:CXCR1 migration assays, 300,000 cells/well were added to the top chamber of a 3 μm Transwell insert (Corning) in 50 μL of migration media (RPMI-1640, 0.5% FBS, 4 mM L-Glutamine, 0.05% DMSO). […] Cell counts were determined by Attune NxT Flow Cytometer Plate Reader (ThermoFisher), based on cell size parameters FSC-H/SSC-H. Experiments were performed in 3 technical and 3 biological replicates. […] Statistical significances between control experimental groups was evaluated using Dunnett's test. […] EC80 was calculated by fitting a chemokine dose-response curve with 3 parameters (fixing the top to 100%). IC50 was calculated by fitting an inhibitor response curve with 4 parameters.
as §2, with “IC50 experiments were performed at the EC80 dose of chemokine.” left out, “R-packages used were ggupset_0.3.0, DescTools_0.99.44, and drc_3.0-1.” left out

Chain of CXCL12 (P48061 22-89 limits assumed): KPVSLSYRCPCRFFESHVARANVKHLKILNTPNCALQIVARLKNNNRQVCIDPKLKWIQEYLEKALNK

CC(C)C[C@H](NC(=O)[C@@H]1CCCN1C(=O)[C@H](C)NC(=O)[C@H](Cc1ccc(O)cc1)NC(=O)[C@H](C)NC(=O)[C@@H](NC(=O)[C@H](Cc1ccc(O)cc1)NC(=O)[C@H](CC(=O)O)NC(=O)[C@H](CC(=O)O)NC(=O)[C@H](CCC(=O)O)NC(=O)[C@@H](N)CCC(=O)O)[C@@H](C)O)C(=O)N[C@H](C(=O)N[C@@H](CS)C(=O)N[C@@H](Cc1ccc(O)cc1)C(=O)N[C@@H](Cc1ccccc1)C(=O)N[C@@H](CS)C(N)=O)[C@@H](C)O [HD2_C16, EEDDYTAYAPLTCYFC] (H-EEDDYTAYAPLTCYFC-NH2; N-terminus assumed)
chemotaxis compared with the parental HD2 peptide [1]: significant reduction in chemotaxis | chemotaxis compared with the parental HD2 peptide [2]: significant reduction in chemotaxis | chemotaxis compared with the parental HD2 peptide [3]: significant reduction in chemotaxis | activity in inhibiting migration of activated T cells in comparison to HD2_Y5W ([3]; peptides final concentration as printed): potent inhibitor | chemotaxis compared with the parental HD2 peptide [4]: significant reduction in chemotaxis | chemotaxis compared with the parental HD2 peptide [5]: significant reduction in chemotaxis

EEDDWTAYAPLTCYFT-NH2 [HD2_W5, EEDDWTAYAPLTCYFT]
chemotaxis compared with the parental HD2 peptide [1]: significant reduction in chemotaxis | chemotaxis compared with the parental HD2 peptide [3]: significant reduction in chemotaxis | chemotaxis compared with the parental HD2 peptide [4]: significant reduction in chemotaxis

EEDDYTAYWPLTCYFT [A9W]
chemotaxis compared with the parental HD2 peptide [1]: significant reduction in chemotaxis | chemotaxis compared with the parental HD2 peptide [2]: significant reduction in chemotaxis | chemotaxis compared with the parental HD2 peptide [3]: significant reduction in chemotaxis | chemotaxis compared with the parental HD2 peptide [4]: significant reduction in chemotaxis | chemotaxis compared with the parental HD2 peptide [5]: significant reduction in chemotaxis

EEDDYWAYAPLTCYFT [HD2_W6]
chemotaxis compared with the parental HD2 peptide [1]: significant reduction in chemotaxis | chemotaxis compared with the parental HD2 peptide [2]: significant reduction in chemotaxis | chemotaxis compared with the parental HD2 peptide [4]: significant reduction in chemotaxis | chemotaxis compared with the parental HD2 peptide [5]: significant reduction in chemotaxis
